{"source": "patent US9410142B2", "about": "“Dendrimer-based excipients for the attenuation of protein aggregation” (Massachusetts Institute of Technology, priority 2010, dated 2016)", "key": {"[1]": {"biological_target": "T1, α-chymotrypsinogen A (aCgn) (Bos taurus, UniProt P00766)", "experiment": "aCgn aggregation (monomer loss) at 52.5° C. by size exclusion HPLC", "format": "physicochemical, Bovine", "details": "for rate of aCgn monomer loss compared to the reference solution: additive 0.05 M; for aCgn aggregation suppression compared with other salt forms / generations (FIG. 5, 6, 8): 10 mg/mL aCgn, pH 5, 52.5° C.; for aCgn t95/t95, 0 (Shelf-Life Extension Factor): isotonic concentrations, 20 mM sodium citrate pH 5, 52.5° C., time for 5% loss of protein vs no additive", "experimental": "The aggregation of aCgn was accelerated by incubating samples at an elevated temperature. […] In addition to all aggregation experiments being conducted at that temperature, all samples contained 10 mg/mL aCgn, held at pH 5.0 using a 20 mM sodium citrate buffer. 50 μL aliquots of each protein-cosolute mixture were placed in 0.2 mL polymerase chain reaction (PCR) tubes and then incubated in a Bio-Rad Mycycler thermal cycler with a timer initiated when the thermal cycler reached the desired temperature. Each series contained 12 samples and up to 8 different mixtures were tested at the same time during any given experiment. Samples were removed periodically and immediately placed in an ice bath to quench the aggregation reaction. The length of each experiment was planned so that the extent of reaction was such that at least 20% of the protein aggregated, making changes in the rate of aggregation pronounced. After at least five minutes in the ice bath, the samples were briefly spun in a minicentrifuge to remove precipitated aggregates and then transferred to autosampler vials.\nAll aCgn samples were first treated with phenylmethylsulfonyl fluoride to inhibit residual amounts of active enzyme and, after dialysis, solutions were frozen, rather than lyophilized, in 0.3 mL aliquots and used within 6 months. […] Solutions for the aggregation study were prepared by first preparing a solution of the cosolute of interest in a 20 mM sodium citrate pH 5 buffer at a concentration double that of interest (adjusting the pH to 5 if needed with the appropriate acid or an 8 M sodium hydroxide solution), then mixing 0.3 mL of this solution with 0.3 mL of a thawed aCgn solution. This solution was then divided into twelve aliquots, each 50 μL in volume, and incubated at an elevated temperature, as described below.\n15 μL, of each aCgn sample were injected into an Agilent 1200 series HPLC, equipped with a Zorbax GF-250 (4.6×250 mm, 4 micron) size exclusion column and a UV-Vis detector, during a sequence. The HPLC mobile phase contained 25 mM citric acid monohydrate, 25 mM sodium acetate, and 200 mM sodium chloride with the pH adjusted to 4.0 using sodium hydroxide. The flow rate was set at 1 mL/min and samples were monitored at 280 nm.\nPeak area at each time point was compared to the peak area for an unstressed sample to create a monomer loss profile normalized with respect to the initial concentration. Each profile was compared to a profile for a sample containing no cosolute to determine the change in aggregation rate upon addition of the cosolute. For a control, each aggregation experimental setup had one protein solution that contained no cosolute to verify that the baseline aggregation rate remained constant amongst all experiments.\nThe most notable consequence of perturbing a protein's environment is the enhancement or inhibition of protein aggregation. Deyoung L R et al. (1993) Accounts Chem Res 26:614-620; Fink A L (1998) Fold Des 3:R9-R23. The guanidinium-modified dendrimers were added to model protein solutions and incubated at an elevated temperature to determine how they influence the rate of this degradation pathway. […] At low dendrimer concentrations (0.05 M), the rate of monomer loss in the presence of the surface-modified dendrimer is slower than when compared to the reference solution. However, this aggregation rate reduction is insignificant when compared to the rate reduction induced by a high concentration of other commonly used additives such as arginine hydrochloride (ArgHCl), which is also depicted in the figure. Furthermore, as the concentration of the surface-modified dendrimer is increased, the aggregation rate reduction decreases until ultimately, the rate of aggregation is increased. At a concentration of 0.2 M, the surface-modified dendrimer induced rapid aggregation, causing a 50% loss in about 10 minutes as opposed to 30 minutes for the solution containing no cosolute. […]"}, "[2]": {"biological_target": "T1, α-chymotrypsinogen A (aCgn)", "experiment": "DSC denaturation midpoint temperature (Tm) of aCgn", "format": "physicochemical, Bovine", "experimental": "The thermodynamic stability of aCgn in the presence of the arginine salts was determined by DSC (Microcal VP-Differential Scanning calorimeter located in the Biophysical Instrumentation Facility (BIF) at MIT). Each reading began with a minimum of three buffer-buffer up and down scans (in this case, the buffer also contains the cosolute of interest) to establish a reproducible thermal history followed by a single protein-buffer up scan. aCgn was analyzed at a concentration of 1 mg/mL in a 20 mM sodium citrate pH 5 buffer containing the cosolute of interest and a scan rate of 90° C./hour. The data was analyzed in the MicroCal Origin® plotting software. In the analysis, the last buffer-buffer reference scan was first subtracted from the data and then the data was normalized with respect to the protein concentration, cell volume, and scan rate. The baseline (which was progressed through the peak) was then subtracted from the plot and the denaturation midpoint temperature, Tm, was taken as the temperature at the peak maximum of the unfolding event. For each arginine salt, three concentrations (including zero concentration) were tested and Tm values with respect to cosolute concentration were fitted to a linear trend.\nThe thermostability of aCgn at 1 mg/mL in the presence of the modified dendrimers was assessed by determining the denaturation midpoint temperature (Tm) from DSC scans, which is a qualitative indicator of how the conformational stability of the protein is perturbed. Ghosh K et al. (2009) Proc Natl Acad Sci USA 106:10649-10654."}, "[3]": {"biological_target": "T1, α-chymotrypsinogen A (aCgn)", "experiment": "Preferential interaction with aCgn by vapor pressure osmometry (VPO)", "format": "physicochemical, Bovine", "details": "for Γexp preferential interaction coefficient of aCgn: 0.17-[…] dendrimer salt, VPO", "experimental": "Osmolality measurements were carried out according to the previously described procedure. For improved accuracy, all samples were prepared gravimetrically using a Mettler Toledo balance with a precision of 0.1 mg. Partial molar volume values of the\nStock solutions of both BSA and lysozyme and stock solutions of the cosolutes were each prepared in a 40 mM sodium phosphate buffer, pH 6.0 (aCgn measurements were conducted in 20 mM sodium citrate buffer, pH 3.5 or pH 5.0). Stock solutions of the cosolutes were used so that a series of samples could be easily produced with varying solute concentrations by dilution with water and buffer. The protein stock solutions were further purified by placing the solutions under dialysis for 48 hours at room temperature against two changes of buffer (1 L each). […] To determine the concentration, samples of each stock solution were diluted gravimetrically with water to a final optical density of about 1.0 and the concentration determined spectrophotometrically with a PerkinElmer Lambda 35 UV/Vis spectrometer. It should be noted that the protein stock solutions were stored at 4° C. and used within one week of their preparation.\n[formula] A Wescor Vapro® vapor pressure osmometer (model 5520) was used for all osmometry measurements. The instrument was calibrated using 0.1, 0.29, and 1 mol/kg osmolality standards provided by Wescor. Due to slight drifts in the calibration points, the instrument was recalibrated after every four measurements and the thermocouple was cleaned daily using concentrated ammonium hydroxide followed by a rinse with HPLC grade water. […] The data sets for each cosolute included at least 16 individually made solutions (both for the sets with and without the protein). Each sample contained approximately 80 μL of solution (40 μL of diluted cosolute stock solution and 40 μL of the protein stock solution). A minimum of three measurements on each solution were made. If the standard deviation for a particular solution was greater than 2 mmol/kg, more measurements were taken or another sample was prepared. For a given solute, data representing the dependence of osmolality on solute molality were fitted by a quadratic equation, with all fitting parameters floated. Data were weighted by the standard deviation of the individual osmolality measurements for the same solution using the nonlinear fitting program Igor Pro.\nTo gain further insight into how the modified dendrimer salts inhibit protein-protein interactions, preferential interaction coefficient (Γ23) values at various concentrations were determined, both experimentally via vapor pressure osmometry (VPO) measurements and computationally via MD simulations. The experimental results for the interaction between modified generation 0 PAMAM dendrimers and aCgn are expressed in Table 2, which summarizes the polynomial fit and uncertainty of the experimental data. Theoretical preferential interaction coefficient values were computed from the MD simulation using the procedure outlined in our previous work. Baynes B M and Trout B L (2003) J Phys Chem B 107:14058-14067; Shukla D et al. (2009) J Phys Chem B 113:12546-12554."}, "[4]": {"experiment": "Partial molar volume from density measurements of dendrimer only solutions", "format": "physicochemical"}, "[5]": {"biological_target": "Concanavalin A (Con A) (Canavalia ensiformis, UniProt P02866)", "experiment": "Con A aggregation / shelf-life at pH 6.5 and 37° C.", "format": "physicochemical", "details": "for Con A t95/t95, 0 (Shelf-Life Extension Factor): isotonic concentrations, 40 mM sodium phosphate pH 6.5, 37° C., time for 5% loss of protein vs no additive", "experimental": "This Shelf-Life Extension Factor was determined by comparing the length of time, t95, for a 5% loss of protein when in the presence of the compounds to the original length of time, t95,0 for a 5% loss. For comparison purposes, isotonic concentrations (as determined by VPO) of the compounds were used and Shelf-Life Extension Factor values for commonly used excipients at isotonic concentrations are shown as well. Shelf-life values of aCgn were determined at 52.5° C. and at 37° C. for Con A."}}, "note": "Entries after “also recorded” stand apart in the source; their conditions may differ."}
{"compound": "Generation 1 PAMAM Dendrimer, Ethylene Diamine Core, with Guanidinium Chloride Surface Groups [G1-Gdn]", "values": [{"measurement": "rate of aCgn monomer loss compared to the reference solution", "setting": "[1]", "value": "large increase in the rate of aggregation"}]}
{"compound": "CC(=O)O", "note": "[acetate]", "values": [{"measurement": "aCgn aggregation suppression compared with other salt forms / generations (FIG. 5, 6, 8)", "setting": "[1]", "value": "moderately improves the performance; also recorded: only improved slightly"}]}
{"compound": "Cl.Cl.Cl.Cl.Cl.Cl.N=C(N)NCCNC(=O)CCN(CCC(=O)NCCNC(=N)N)CCN(CCC(=O)NCCNC(=N)N)CCC(=O)NCCNC(=N)N", "note": "[GdmCl, Generation 0 Polyamidoamine (PAMAM) dendrimer with a surface modified to guanidinium]", "values": [{"measurement": "rate of aCgn monomer loss compared to the reference solution", "setting": "[1]", "value": "slower"}, {"measurement": "time for 50% loss of aCgn monomer", "setting": "[1]; additive 0.2 M, no cosolute 30 minutes", "value": "about 10 minutes"}, {"measurement": "rate of lowering the melting temperature of aCgn relative to ordinary GdmCl", "setting": "[2]", "value": "double"}, {"measurement": "dTm/d[3] aCgn denaturation midpoint temperature increment", "setting": "[2]; 1 mg/mL aCgn, 20 mM sodium citrate pH 5, maximum dendrimer 0.2 mol/L", "value": "−13.9", "unit": "K * L/mol"}, {"measurement": "rate of decrease of Tm of aCgn", "setting": "[2]; concentrations less than 0.2 mol/L", "value": 13.9, "unit": "° C.*M^−1"}, {"measurement": "Γ23/[3] preferential interaction with aCgn", "setting": "[3]; 50 mg/mL aCgn, 20 mM sodium citrate pH 5, maximum dendrimer 0.2 mol/L", "value": "−8.1 ± 3.6", "unit": "mol/mol"}, {"measurement": "Γexp preferential interaction coefficient of aCgn", "setting": "[3]", "value": "−1.5"}, {"measurement": "Γexp preferential interaction coefficient of aCgn", "setting": "[3]; listed as chloride salt", "value": "−1.5±0.7"}, {"measurement": "V0 partial molar volume at infinite dilution", "setting": "[4]", "value": 0.5217, "unit": "L/mol"}]}
{"compound": "Cl.N=C(N)NCCC[C@H](N)C(=O)O", "note": "[ArgHCl, arginine hydrochloride, reference compound]", "values": [{"measurement": "aCgn t95/t95, 0 (Shelf-Life Extension Factor)", "setting": "[1]", "value": 3.3}, {"measurement": "Con A t95/t95, 0 (Shelf-Life Extension Factor)", "setting": "[5]", "value": 0.4}]}
{"compound": "N=C(N)NCCNC(=O)CCN(CCNC(=O)CCN(CCC(=O)NCCN(CCC(=O)NCCNC(=N)N)CCC(=O)NCCNC(=N)N)CCN(CCC(=O)NCCN(CCC(=O)NCCNC(=N)N)CCC(=O)NCCNC(=N)N)CCC(=O)NCCN(CCC(=O)NCCNC(=N)N)CCC(=O)NCCNC(=N)N)CCC(=O)NCCNC(=N)N.O=P(O)(O)O.O=P(O)(O)O.O=P(O)(O)O.O=P(O)(O)O.O=P(O)(O)O.O=P(O)(O)O.O=P(O)(O)O.O=P(O)(O)O.O=P(O)(O)O.O=P(O)(O)O.O=P(O)(O)O.O=P(O)(O)O.O=P(O)(O)O.O=P(O)(O)O", "note": "[Dend. 1 Gdm(H2PO4)]", "values": [{"measurement": "aCgn aggregation suppression compared with other salt forms / generations (FIG. 5, 6, 8)", "setting": "[1]", "value": "lower for all concentrations"}, {"measurement": "aCgn t95/t95, 0 (Shelf-Life Extension Factor)", "setting": "[1]", "value": 16.3}]}
{"compound": "OCC(O)CO", "note": "[Glycerol, reference compound]", "values": [{"measurement": "Con A t95/t95, 0 (Shelf-Life Extension Factor)", "setting": "[5]", "value": 1.3}]}
{"compound": "N=C(N)NCCNC(=O)CCN(CCNC(=O)CCN(CCC(=O)NCCN(CCC(=O)NCCNC(=N)N)CCC(=O)NCCNC(=N)N)CCN(CCC(=O)NCCN(CCC(=O)NCCNC(=N)N)CCC(=O)NCCNC(=N)N)CCC(=O)NCCN(CCC(=O)NCCNC(=N)N)CCC(=O)NCCNC(=N)N)CCC(=O)NCCNC(=N)N.O=S(=O)(O)O.O=S(=O)(O)O.O=S(=O)(O)O.O=S(=O)(O)O.O=S(=O)(O)O.O=S(=O)(O)O.O=S(=O)(O)O", "note": "[Dend. 1 Gdm(SO4)1/2]", "values": [{"measurement": "Con A t95/t95, 0 (Shelf-Life Extension Factor)", "setting": "[5]", "value": 16.7}, {"measurement": "Con A t95/t95, 0 (Shelf-Life Extension Factor)", "setting": "[5]; listed as generation 1 dendrimer with a guanidinium sulfate surface", "value": "greater than 15"}, {"measurement": "Con A t95/t95, 0 (Shelf-Life Extension Factor)", "setting": "[5]; listed as sulfate form of the generation 1 modified dendrimer", "value": 16.7}, {"measurement": "Con A shelf-life, times longer than with glycerol or sucrose", "setting": "[5]; pH 6.5, 37° C.", "value": "over 10 times"}]}
{"compound": "O=S(=O)([O-])[O-].[Na+].[Na+]", "note": "[Na2SO4, sodium sulfate, reference compound]", "values": [{"measurement": "aCgn t95/t95, 0 (Shelf-Life Extension Factor)", "setting": "[1]", "value": 3.1}]}
{"compound": "OC[C@H]1O[C@@](CO)(O[C@H]2O[C@H](CO)[C@@H](O)[C@H](O)[C@H]2O)[C@@H](O)[C@@H]1O", "note": "[Sucrose, reference compound]", "values": [{"measurement": "aCgn t95/t95, 0 (Shelf-Life Extension Factor)", "setting": "[1]", "value": 1.9}]}
